Assay results as given in PubChem BioAssay (NCI).
Values joined by “and” are separate entries in the source; they are usually repeats but may differ in a detail not shown here. Equal values may be shown once.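 Tested at 5 concentrations; 48 h exposure; 96-well plates; endpoints linearly interpolated, else capped at highest concentration. GI50: concentration for 50% inhibition of growth. TGI: concentration producing complete growth inhibition.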

Assays:
Experiment in all cases: inhibition of tumour cell growth, NCI panel, 48 h
A549 NSCLC = system: A549 NSCLC
ACHN renal = system: ACHN renal
SK-MEL-28 melanoma = system: SK-MEL-28 melanoma
SR leukemia = system: SR leukemia
SF-539 CNS = system: SF-539 CNS
MCF7 breast = system: MCF7 breast
HL-60(TB) leukemia = system: HL-60(TB) leukemia
SK-MEL-5 melanoma = system: SK-MEL-5 melanoma
NCI-H23 lung = system: NCI-H23 lung
OVCAR-3 ovarian = system: OVCAR-3 ovarian

Row | Structure (SMILES) | GI50 (A549 NSCLC) | TGI (A549 NSCLC) | GI50 (ACHN renal) | TGI (ACHN renal) | GI50 (SK-MEL-28 melanoma) | TGI (SK-MEL-28 melanoma) | GI50 (SR leukemia) | TGI (SR leukemia) | GI50 (SF-539 CNS) | TGI (SF-539 CNS) | GI50 (MCF7 breast) | TGI (MCF7 breast) | GI50 (HL-60(TB) leukemia) | TGI (HL-60(TB) leukemia) | GI50 (SK-MEL-5 melanoma) | TGI (SK-MEL-5 melanoma) | GI50 (NCI-H23 lung) | TGI (NCI-H23 lung) | GI50 (OVCAR-3 ovarian) | TGI (OVCAR-3 ovarian) [µM]
1 | CN(C)c1ccc2nc3ccc(=[N+](C)C)cc-3sc2c1 | 0.236 µM and 0.321 µM | 3.3 µM and 12 µM | 2.65 µM and 3.04 µM | 15.3 µM and 24.1 µM | 1.52 µM and 4.41 µM | 4.69 µM and 18.2 µM | 1.03 µM and 1.45 µM | 57.7 µM and 46.2 µM | 0.139 µM and 0.379 µM | 9.82 µM and 14.7 µM | 0.304 µM and 0.324 µM | 12.2 µM and 14.5 µM | 0.0938 µM and 0.187 µM | 2.28 µM and 1.35 µM | 0.146 µM and 0.39 µM | 0.412 µM and 1.98 µM | 0.322 µM and 0.597 µM | 4.99 µM and 12.7 µM | 0.307 µM and 0.3 µM | 1.66
2 | O=C1c2c(O)cccc2C(C2OC(CO)C(O)C(O)C2O)c2cc(CO)cc(O)c21 (stereo not drawn) |  | > 100 µM |  | > 100 µM |  | > 100 µM | > 100 µM | > 100 µM |  | > 100 µM |  | > 100 µM |  | > 100 µM |  | > 100 µM |  | > 100 µM | 43.9 µM and > 100 µM | > 100
3 | COC(=O)c1cc2ccc(OC(C)=O)c(OC(C)=O)c2cn1 |  | 43 µM |  | 31.5 µM |  | 34.3 µM |  | 6.98 µM |  | 33.8 µM | 16.7 µM | 6 µM and 35.5 µM | 1.63 µM | 8.21 µM and 3.8 µM |  | 30.3 µM |  | 36.8 µM |  | 30.9
4 | O=c1nc2oc3ccc4ccccc4c3cc-2s1 | > 92.7 µM | > 100 µM | 38.6 µM | > 100 µM | 14.6 µM | > 100 µM | 0.458 µM | > 100 µM | 1.58 µM | > 100 µM | 0.485 µM | > 100 µM | 1.41 µM | > 100 µM | 2.44 µM | > 100 µM | 28.7 µM | > 100 µM | 0.457 µM | > 23.7
5 | C=C1C(=O)OC2C1C(OC(=O)/C(C)=C/C)CC(O)(CCl)C1C(O)C3OC3(C)C21O (stereo not drawn) |  | > 50 µM |  | > 50 µM |  | > 50 µM |  | > 50 µM |  | > 50 µM |  | > 50 µM |  | 23.2 µM |  | > 50 µM |  | > 50 µM |  | > 50
6 | C=C(CO[Si](C)(C)C(C)(C)C)C(C)=O |  | > 100 µM |  | > 71.4 µM |  | 34.6 µM |  | > 31.6 µM |  | > 62.2 µM |  | 76.7 µM |  | > 100 µM |  | 28.4 µM |  | > 56.3 µM |  | 38.1
7 | O=C(Nc1ccc(Cl)cc1)Nc1ccc(Nc2nncc3ccccc23)cc1 | 3.03 µM | 19.3 µM | 1.12 µM | 7.12 µM | 3.04 µM | 12.8 µM | 3.89 µM | 23.4 µM | 2.88 µM | 11.5 µM | 1.43 µM | 8.33 µM | 2.42 µM | 7 µM | 2.31 µM | 6.82 µM | 3.07 µM | 14.4 µM | 2.57 µM | 10.3
8 | COc1c(Cl)cc(NC(=S)C#N)cc1Cl |  | > 100 µM |  | > 80.1 µM |  | > 71.4 µM |  | > 92.2 µM |  | 59 µM |  | 92.9 µM |  | > 100 µM |  | 32.9 µM |  | 44.6 µM |  | > 62.8
9 | CN(C)c1ccc2c(c1)OC(N)=C(C#N)C2c1ccc2c(c1)CCO2 (stereo not drawn) | 0.198 µM | > 100 µM | 0.0683 µM | > 67.1 µM | 1.92 µM | 29.5 µM | < 0.0198 µM | > 48.2 µM | 0.118 µM | 0.519 µM | < 0.0211 µM | 32.3 µM | 0.0939 µM | 0.491 µM | < 0.0427 µM | 15.1 µM | 0.362 µM | > 100 µM | < 0.0213 µM | 1.88
10 | COc1ccc(/C=C2\CCCC3=C2NC(N)=NC3c2ccc(OC)c(OC)c2)cc1OC (stereo not drawn) | 33.2 µM | > 100 µM | 4.14 µM | > 76.2 µM | 21.6 µM | > 100 µM | 0.915 µM | 22.6 µM | 24.4 µM | > 100 µM | 1.89 µM | > 100 µM | 4.52 µM | > 100 µM | 3.48 µM | > 100 µM | 7.33 µM | > 100 µM | 5.41 µM | > 100
11 | NC(=S)N/N=C/c1ncccc1N | 3.16 µM | > 100 µM |  |  | 12.6 µM | > 100 µM |  | 18.9 µM and > 10 µM |  | 1.23 µM and 0.673 µM | 0.32 µM | 27.2 µM and > 10 µM | 0.867 µM | 6.45 µM and > 6.69 µM | 0.534 µM | 22.3 µM and > 10 µM |  | 6.83 µM and > 3.07 µM | 2.54 µM | > 56.6
12 | CC[C@H](CO)Nc1nc(NCc2ccccc2)n2ncc(C(C)C)c2n1 | 1.58 µM | 41.4 µM | 0.808 µM | 10.7 µM | 1.16 µM | 3.82 µM | 0.249 µM | 1.59 µM | 1.22 µM | 3.62 µM | 0.592 µM | 7.99 µM | 0.409 µM | 2.68 µM | 1.78 µM | 4.96 µM | 1.71 µM | 7.79 µM | 1.15 µM | 4.6
13 | CCCCN(CCCC)c1ccc(C(=N)c2ccc(N(CCCC)CCCC)cc2)cc1 | 0.72 µM | 2.07 µM | 0.402 µM | 1.48 µM | 1.05 µM | 2.41 µM | 0.287 µM | 1.04 µM | 1.49 µM | 2.95 µM | 0.389 µM | 1.44 µM | 0.479 µM | 1.95 µM | 0.547 µM | 1.61 µM | 0.292 µM | 1.06 µM | 0.283 µM | 0.946
14 | CCN(CC)Cc1ccc(Nc2nccc(-c3cnn4ncccc34)n2)cc1 | 0.0163 µM | > 25 µM | 0.00739 µM | > 25 µM | 0.015 µM | 0.0727 µM | 0.00795 µM |  | 0.00973 µM | 0.0781 µM | 0.017 µM | 14.8 µM | 0.00687 µM | 0.0229 µM | 0.0419 µM | 0.215 µM | 0.0217 µM | 0.126 µM | 0.0115 µM | 0.106
